Here are results for 1 substance from US9585933B2, “Therapeutic use of peptide inhibitors of NADPH oxidase; aerosolization as a delivery mechanism” (University of Pittsburgh—Of the Commonwealth System of …, priority 2011, dated 2017).

Where no end group is shown, it is not given here.

This assay addresses T1, Nox4 oxidase (COS-Nox4 lysate: hNox4, p22phox) (Homo sapiens, UniProt Q9NPH5).
T1 construct: expressed in transfected cells; host or cells: COS-22 cells (COS 7 with p22phox), stably transfected; cell lysate used
T1 sequence (Q9NPH5 1-578): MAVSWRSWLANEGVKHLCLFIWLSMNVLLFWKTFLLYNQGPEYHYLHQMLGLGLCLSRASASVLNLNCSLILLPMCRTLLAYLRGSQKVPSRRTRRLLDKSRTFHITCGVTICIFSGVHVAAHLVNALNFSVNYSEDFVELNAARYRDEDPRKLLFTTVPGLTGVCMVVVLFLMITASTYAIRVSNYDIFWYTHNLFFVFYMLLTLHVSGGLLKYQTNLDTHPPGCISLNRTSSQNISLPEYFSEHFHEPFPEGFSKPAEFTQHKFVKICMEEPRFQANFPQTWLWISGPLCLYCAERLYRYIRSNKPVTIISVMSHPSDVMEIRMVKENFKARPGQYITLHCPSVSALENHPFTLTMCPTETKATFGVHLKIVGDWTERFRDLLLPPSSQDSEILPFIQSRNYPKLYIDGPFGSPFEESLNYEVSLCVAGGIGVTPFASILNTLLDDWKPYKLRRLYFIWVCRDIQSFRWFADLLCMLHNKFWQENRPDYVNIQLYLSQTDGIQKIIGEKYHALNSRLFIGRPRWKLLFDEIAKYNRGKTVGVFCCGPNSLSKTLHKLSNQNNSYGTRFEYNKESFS
T1 sequence (P13498 2-195 partner limits assumed): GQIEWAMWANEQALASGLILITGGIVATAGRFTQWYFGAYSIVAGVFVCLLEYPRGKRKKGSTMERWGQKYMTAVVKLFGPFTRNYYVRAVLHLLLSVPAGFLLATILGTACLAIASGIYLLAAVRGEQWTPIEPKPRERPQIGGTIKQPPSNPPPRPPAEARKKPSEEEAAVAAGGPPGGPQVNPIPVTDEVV
As to the kind of experiment: Amplex Red assay, H2O2 production in COS-Nox4 lysates. It counts as biochemical. The note with it: for rate of H2O2 production, Amplex red oxidation: 0 μM control 80.4±3.1. As to the method: To test this hypothesis, the inhibitory activity of Nox2ds was assessed in cell-free assays using reconstituted systems expressing either Nox1, 2 or 4 oxidase. Nox 2 oxidase was recapitulated by stably transfecting COS 7 cells with Nox2, p22phox, p47phox, and p67phox (aka COS-Nox2). Nox1 oxidase was obtained by transfecting COS 7 cells with Nox1, p22phox, NOXO1 and NOXA1 (COS-Nox1), and Nox 4 oxidase was regenerated by transfection of COS 7 cells with Nox4 and p22phox. […] Our new data support selectivity of Nox2ds peptide in differentiating the contribution of Nox2 vs. Nox1 and Nox4 NADPH oxidase and its potential clinical use in ameliorating cardiopulmonary diseases.
Cell transfection was carried out using Lipofectamine LTX and Plus reagent (Invitrogen), according to the manufacturer's instructions. COS-22 cells were transiently cotransfected with pcDNA 3.1-hNox1, pCMVsport 6-hNOXA1, and pcDNA3.1-hNoxO1 (COS-Nox1/NOXO1/NOXA1 cells). Cells were used 24 h after transfection. For stable transfection of Nox4, COS-22 cells were transfected with pcDNA3.1/Hygro-hNox4 (COS-Nox4 cells). COS-Nox4 cells were selected in complete medium supplemented with 0.2 mg/ml hygromycin B and 1.8 mg/ml G418. Stable transfectants were maintained in culture under the same conditions. Adherent cells were harvested by incubating with 0.05% trypsin/EDTA for 5 min at 37° C. After addition of DMEM/10% FBS to neutralize the trypsin, the cells were pelleted by centrifugation at 1000 g for 5 min at 4° C. and used for the experiments.
Hydrogen peroxide (H2O2) generation was quantified in COS-Nox4 cell lysates by Amplex Red. H2O2-producing activity was quantified in […] using Amplex red. Briefly, COS-Nox4 cells (5×10^7 cells/nil) were disrupted in ice-cold disruption buffer (PBS containing 0.1 mM EDTA, 10% glycerol, protease inhibitor cocktail, and 0.1 mM PMSF) by freeze/thaw cycles as we described above. Incubation of COS-Nox4 cell lysate with Nox2ds was performed in assay buffer (25 mM Hepes, pH 7.4, containing 0.12 M NaCl, 3 mM KCl, 1 mM MgCl2, 0.1 mM Amplex red, and 0.32 U/ml HRP) for 5 min at room temperature on an orbital shaker (120 movements/min), before the addition of 36 μM NADPH, to initiate H2O2 production. […] Fluorescence measurements were made using a Biotek Synergy 4 hybrid multimode microplate reader with a 530/25-excitation and a 590/35-emission filter. A standard curve of known H2O2 concentrations was developed using the Amplex red assay (as per the manufacturer's instructions) and was used to quantify H2O2 production in the COS-Nox4 cell-free system. Nox4 activity was obtained by subtracting nontransfected COS-22 cell lysate activity from COS-Nox4 cell lysate activity. The reaction was monitored at room temperature for 10 min, and the emission increase was linear during this interval.
H2O2 production was initiated by the addition of NADPH and measured by Amplex Red for 10 min.

CSTRVRRQL-NH2 [Nox2ds, CSTRVRRQL]: the “inhibition of COS-Nox4 lysate H2O2 production (in words)” value was “did not inhibit”. Moreover, under “0.1 μM peptide”, the “rate of H2O2 production, Amplex red oxidation” value (from here on “rate of H2O2 production”) is 74.3±2.1 nmol H2O2/min/10^7 cell lysate equivalents. Besides, the “rate of H2O2 production” value (0.3 μM peptide) is given as 74.1±5.9 nmol H2O2/min/10^7 cell lysate equivalents. Besides, the “rate of H2O2 production” value (1 μM peptide) was 82.3±3.4 nmol H2O2/min/10^7 cell lysate equivalents. For the same substance, for the setting “3 μM peptide”, the “rate of H2O2 production” value is reported as 83.3±1.6 nmol H2O2/min/10^7 cell lysate equivalents.
